Columns and labels:
Type in all cases: in vitro ADME
CYP1A2 = target: T1, CYP1A2 (Homo sapiens, UniProt P05177); assay: CYP1A2 inhibition (fluorescent substrate); settings: CYP1A2, CEC substrate; read-out: Cyp IC50 1A2
T1 sequence (P05177 1-516): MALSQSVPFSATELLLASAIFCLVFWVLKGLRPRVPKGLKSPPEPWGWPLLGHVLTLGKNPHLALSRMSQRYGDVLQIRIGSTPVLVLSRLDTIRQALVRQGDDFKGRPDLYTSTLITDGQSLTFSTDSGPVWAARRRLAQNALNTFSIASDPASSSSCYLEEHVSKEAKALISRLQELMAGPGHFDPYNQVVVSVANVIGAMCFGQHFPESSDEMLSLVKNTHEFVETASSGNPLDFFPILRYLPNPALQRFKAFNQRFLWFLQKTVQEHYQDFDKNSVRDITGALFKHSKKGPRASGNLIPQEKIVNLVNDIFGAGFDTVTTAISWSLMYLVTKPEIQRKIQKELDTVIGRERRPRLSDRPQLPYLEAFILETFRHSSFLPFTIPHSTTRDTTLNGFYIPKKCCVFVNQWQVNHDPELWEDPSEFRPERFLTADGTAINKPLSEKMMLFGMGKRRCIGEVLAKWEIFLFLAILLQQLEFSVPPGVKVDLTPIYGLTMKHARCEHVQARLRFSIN
Procedure, shortened: (§1)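 IC50 values come from plotting product fluorescence against compound concentration; inhibition lowers formation of the fluorescent metabolite. Ten-point twofold dilutions in co-factor mix were held 10 minutes at 37 °C before the enzyme reaction, also run at 37 °C.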

CYP2C19 = CYP2C19 (Homo sapiens, UniProt P33261); assay: CYP2C19 inhibition (fluorescent substrate); settings: CYP2C19, CEC substrate; read-out: Cyp IC50 2C19
Procedure, shortened: as §1

CYP2D6 = CYP2D6 (Homo sapiens, UniProt P10635); assay: CYP2D6 inhibition (fluorescent substrate); settings: CYP2D6, AMMC substrate; read-out: Cyp IC50 2D6
Procedure, shortened: as §1

CYP3A4(BQ) = CYP3A4(BQ) (Homo sapiens, UniProt P08684); assay: CYP3A4(BQ) inhibition (fluorescent substrate); settings: read-out: Cyp IC50 3A4(BQ)
Procedure, shortened: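 Inhibition was followed as loss of fluorescent metabolite from a known substrate, with compound in co-factor mix as a 10-point 1:1 serial dilution (100 mM DMSO stock).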

CYP3A4(BQ), sequence (P08684 whole entry): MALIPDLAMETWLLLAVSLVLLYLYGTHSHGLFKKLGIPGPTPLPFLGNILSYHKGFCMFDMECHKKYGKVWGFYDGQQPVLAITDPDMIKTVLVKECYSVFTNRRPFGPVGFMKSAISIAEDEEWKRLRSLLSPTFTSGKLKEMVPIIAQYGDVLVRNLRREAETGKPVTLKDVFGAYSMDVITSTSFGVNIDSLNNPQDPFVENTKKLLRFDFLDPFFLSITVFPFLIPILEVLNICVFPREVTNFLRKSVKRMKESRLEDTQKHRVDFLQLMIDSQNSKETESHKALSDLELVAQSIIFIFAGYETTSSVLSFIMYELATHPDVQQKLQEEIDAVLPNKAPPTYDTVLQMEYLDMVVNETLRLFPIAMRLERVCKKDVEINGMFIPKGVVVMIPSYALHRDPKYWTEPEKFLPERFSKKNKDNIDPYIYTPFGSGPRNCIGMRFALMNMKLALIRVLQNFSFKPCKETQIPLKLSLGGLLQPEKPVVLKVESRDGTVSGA
CYP2D6, sequence (P10635 whole entry): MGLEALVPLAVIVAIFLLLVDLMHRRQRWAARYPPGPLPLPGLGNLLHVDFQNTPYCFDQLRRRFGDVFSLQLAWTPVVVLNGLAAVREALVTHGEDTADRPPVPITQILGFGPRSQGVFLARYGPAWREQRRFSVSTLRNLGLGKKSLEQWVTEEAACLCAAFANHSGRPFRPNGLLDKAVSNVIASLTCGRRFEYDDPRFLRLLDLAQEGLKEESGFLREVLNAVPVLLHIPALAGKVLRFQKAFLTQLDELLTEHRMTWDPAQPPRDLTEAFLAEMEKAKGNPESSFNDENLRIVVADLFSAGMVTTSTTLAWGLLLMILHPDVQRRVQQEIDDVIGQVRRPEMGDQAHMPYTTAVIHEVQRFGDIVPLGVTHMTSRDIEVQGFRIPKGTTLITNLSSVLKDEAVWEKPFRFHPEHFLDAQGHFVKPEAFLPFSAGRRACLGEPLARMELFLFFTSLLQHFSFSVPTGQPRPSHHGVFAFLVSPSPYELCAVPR
CYP2C19, sequence (P33261 whole entry): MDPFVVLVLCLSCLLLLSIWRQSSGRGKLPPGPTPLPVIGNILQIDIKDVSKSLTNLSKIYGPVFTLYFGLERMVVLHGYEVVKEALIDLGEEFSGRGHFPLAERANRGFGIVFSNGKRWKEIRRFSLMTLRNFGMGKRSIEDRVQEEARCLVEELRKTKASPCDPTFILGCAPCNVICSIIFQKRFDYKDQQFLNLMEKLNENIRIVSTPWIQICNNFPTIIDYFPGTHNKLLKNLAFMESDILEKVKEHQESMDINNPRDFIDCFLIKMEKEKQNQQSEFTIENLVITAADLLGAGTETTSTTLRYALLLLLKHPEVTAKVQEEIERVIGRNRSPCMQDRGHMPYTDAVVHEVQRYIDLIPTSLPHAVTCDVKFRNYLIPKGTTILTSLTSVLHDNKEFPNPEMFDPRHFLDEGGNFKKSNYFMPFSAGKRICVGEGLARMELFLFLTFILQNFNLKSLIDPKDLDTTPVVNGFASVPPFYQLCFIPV

IC50 (CYP1A2): > 10 µM
IC50 (CYP2C19): > 10 µM
IC50 (CYP2D6): > 10 µM
IC50 (CYP3A4(BQ)): > 10 µM
Structure (SMILES): CCCS(=O)(=O)Nc1ccc(F)c(C(=O)c2c[nH]c3ncc(-c4ccc(N(C)C)nc4)cc23)c1F [P-2229, Propane-1-sulfonic acid {3-[5-(6-dimethylamino-pyridin-3-yl)-1H-pyrrolo[2,3-b]pyridine-3-carbonyl]-2,4-difluoro-phenyl}-amide]

— US8198273B2, “Compounds and methods for kinase modulation, and indications therefor” (Plexxikon Inc., priority 2009, dated 2012)
